Consider eight molecules from ChEMBL document CHEMBL1201862, “PubChem BioAssay data set” (2004).

SMILES strings stand for the structures.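 The compound was tested at five concentrations on cells cultured in 96-well plates, with a 48-hour exposure period. GI50 marks 50% less growth.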 Activity calls are given as the source filed them. No stated cut-off is given here; in the data, active = GI50 up to about 1.1 µM and inactive = higher.

Among the test systems are OVCAR-8; NCI-H23; HT-29; DU-145; NCI-H522; HCT-15; NCI/ADR-RES; SR; SK-MEL-28; HOP-62; K562; SNB-19; T47D; PC-3; MDA-N; KM12; MDA-MB-231; HOP-92; HCT-116; SF-539.
Common to all, as to assay: NCI-60 cell line screen, 48 h

For the molecule `Cc1cc(NS(=O)(=O)c2ccc(Nc3c4ccccc4nc4c(C(=O)NC(CO)(CO)CO)cccc34)cc2)no1`, the GI50 in the assay with OVCAR-8 was 49.7 µM (inactive); in the assay on NCI-H23 it was 43.6 µM (inactive); in the assay with HT-29, 38.7 µM (inactive); with DU-145, 48.1 µM (inactive); in the assay on NCI-H522, 15.8 µM (inactive); with HCT-15, 61.7 µM. Besides, the GI50 with NCI/ADR-RES is > 100 µM (inactive); in the assay on SR, 26.3 µM (inactive); in the assay on SK-MEL-28 it was 52.8 µM (inactive); in the assay on HOP-62, 25.1 µM (inactive); in the assay on K562, 33.3 µM (inactive); with SNB-19, 34.4 µM (inactive). Besides, the GI50 was 26.5 µM (inactive) in the assay with T47D; 31.3 µM (inactive) in the assay on PC-3; 37.3 µM (inactive) in the assay on MDA-N; 25.2 µM (inactive) in the assay on KM12; 37.9 µM (inactive) in the assay on MDA-MB-231; 32.7 µM (inactive) in the assay with HOP-92.

For the molecule `COc1ccc2c(c1O)[C@@]13CCCC=C1[C@@H](C2)N(C)CC3`, the GI50 is > 100 µM (inactive) in the assay on OVCAR-8; 89.1 µM (inactive) with NCI-H23; 32.1 µM (inactive) in the assay with HT-29; > 100 µM (inactive) in the assay on DU-145; 25.2 µM (inactive) in the assay with NCI-H522; greater than 100 µM with HCT-15. The GI50 was 33 µM (inactive) with NCI/ADR-RES; 25.6 µM (inactive) with SR; > 100 µM (inactive) with SK-MEL-28; > 100 µM (inactive) in the assay with HOP-62; 21.3 µM (inactive) in the assay on K562; 36.6 µM (inactive) in the assay on HCT-116. The GI50 in the assay on SNB-19 is > 100 µM (inactive); with T47D it was 90.2 µM (inactive); in the assay with PC-3, 59.6 µM (inactive); with MDA-N, 61.5 µM (inactive); in the assay with KM12, > 100 µM (inactive); in the assay on MDA-MB-231, 77.6 µM (inactive). For the same molecule, in the assay with HOP-92, the GI50 was 39.7 µM (inactive).

Consider `O=C(O)c1cc2ccccc2c(Cc2c(O)c(C(=O)O)cc3ccccc23)c1O` [PAMOIC ACID], for which the GI50 is > 100 µM (inactive) in the assay with OVCAR-8; > 100 µM (inactive) with NCI-H23; > 100 µM (inactive) with HT-29; > 100 µM (inactive) with DU-145; > 100 µM (inactive) in the assay on NCI-H522; greater than 100 µM in the assay with HCT-15. The GI50 in the assay on NCI/ADR-RES, in the assay with SR, with SK-MEL-28, in the assay with HOP-62, with K562 and in the assay on HCT-116 was > 100 µM (inactive) each time. For the same molecule, the GI50 in the assay on SNB-19, with T47D, in the assay on PC-3, in the assay with MDA-N, with KM12 and in the assay with MDA-MB-231 was > 100 µM (inactive) in each case. In addition, the GI50 in the assay with HOP-92 was > 100 µM (inactive).

On to `Cc1cc(NC[C@H](O)[C@H](O)[C@H](O)CO)c(Sc2cc(=O)[nH]c(=O)[nH]2)cc1C`, for which the GI50 was > 62.5 µM (inactive) with OVCAR-8; > 62.5 µM (inactive) in the assay with NCI-H23; > 62.5 µM (inactive) in the assay with HT-29; > 62.5 µM (inactive) in the assay with DU-145; > 62.5 µM (inactive) in the assay with NCI-H522; greater than 62.5 µM in the assay with HCT-15. Also, the GI50 with NCI/ADR-RES, in the assay with SR, with SK-MEL-28, with HOP-62, in the assay on K562 and with HCT-116 was > 62.5 µM (inactive) throughout. Besides, the GI50 with SNB-19, in the assay on T47D, in the assay with PC-3, with MDA-N, with KM12 and with MDA-MB-231 was > 62.5 µM (inactive) each time. Also, the GI50 in the assay with HOP-92 was > 62.5 µM (inactive).

In the case of `CCCCCCNC(=O)CCC(NC(=O)c1ccc(N(C)Cc2cnc3nc(N)nc(N)c3n2)cc1)C(=O)NCCCCCC` (stereo not given), the GI50 with OVCAR-8 was > 100 µM (inactive); with NCI-H23, > 100 µM (inactive); in the assay on HT-29, 88.7 µM (inactive); with DU-145, 89.3 µM (inactive); with NCI-H522, 63 µM (inactive); in the assay with HCT-15, greater than 100 µM. In addition, the GI50 with NCI/ADR-RES was > 100 µM (inactive); with SR, > 100 µM (inactive); with SK-MEL-28 it was > 100 µM (inactive); in the assay with HOP-62, > 100 µM (inactive); in the assay on K562, 2.52 µM (inactive); in the assay on HCT-116, > 100 µM (inactive). Besides, the GI50 in the assay on SNB-19 was > 100 µM (inactive); with T47D it was > 100 µM (inactive); in the assay on PC-3, > 100 µM (inactive); in the assay on MDA-N it was 9.89 µM (inactive); with KM12, > 100 µM (inactive); with MDA-MB-231 it was 34.8 µM (inactive). Also, in the assay with HOP-92, the GI50 was 98.2 µM (inactive).

In the case of `COC(=O)C(C)(Cc1ccc2c(c1)nnn2C(C)=O)NC(C)=O` (stereo not given), the GI50 in the assay with OVCAR-8 was > 100 µM (inactive); in the assay on NCI-H23, > 100 µM (inactive); in the assay with HT-29 it was > 100 µM (inactive); in the assay on DU-145, > 100 µM (inactive); in the assay on NCI-H522 it was > 100 µM (inactive); with HCT-15, greater than 100 µM. Moreover, the GI50 in the assay with NCI/ADR-RES, in the assay with SR, in the assay on SK-MEL-28, with K562, in the assay on HCT-116 and with SNB-19 was > 100 µM (inactive) in each case. Further, the GI50 in the assay with T47D, with PC-3, in the assay with MDA-N, in the assay with KM12, in the assay with MDA-MB-231 and in the assay with HOP-92 was > 100 µM (inactive) throughout.

Turning to `O=S(=O)(Cc1cnc(O)nc1O)Cc1cnc(O)nc1O`, the GI50 in the assay on OVCAR-8, in the assay on NCI-H23, in the assay with HT-29, in the assay with DU-145, in the assay on SF-539 and in the assay on NCI-H522 was > 100 µM (inactive) each time. The GI50 in the assay with HCT-15 is greater than 100 µM; in the assay on NCI/ADR-RES, > 100 µM (inactive); with SR, 37.8 µM (inactive); in the assay with SK-MEL-28, > 100 µM (inactive); in the assay on K562, > 100 µM (inactive); in the assay on HCT-116, > 100 µM (inactive). Further, the GI50 with SNB-19, in the assay on T47D, with PC-3, in the assay on MDA-N, with KM12 and in the assay with MDA-MB-231 was > 100 µM (inactive) throughout. The GI50 with HOP-92 was > 100 µM (inactive).

For the molecule `Cc1cc2c(c(/C=N/c3ccc([N+](=O)[O-])cc3)c1)OC1(C=C2)Oc2ccccc2C(=O)N1C` (stereo not given), the GI50 in the assay on OVCAR-8 was 16.1 µM (inactive); in the assay on NCI-H23 it was 18.2 µM (inactive); with HT-29, 18.2 µM (inactive); in the assay on DU-145, 22.3 µM (inactive); in the assay on NCI-H522, 21.5 µM (inactive); in the assay with HCT-15 it was 17.9 µM. Also, the GI50 was 18.9 µM (inactive) with NCI/ADR-RES; 12.3 µM (inactive) in the assay on SR; 19.9 µM (inactive) with SK-MEL-28; 29.9 µM (inactive) in the assay with HOP-62; 19.2 µM (inactive) with K562; 14.6 µM (inactive) with HCT-116. The GI50 in the assay on SNB-19 was 34.4 µM (inactive); with T47D it was 7.89 µM (inactive); in the assay with PC-3 it was 18 µM (inactive); in the assay with MDA-N, 24.8 µM (inactive); with KM12, 20 µM (inactive); in the assay with MDA-MB-231, 16.9 µM (inactive). For the same molecule, in the assay on HOP-92, the GI50 is 24.1 µM (inactive).
